Assay results from patent US20260027121A1, “LIGAND ACTING ON ADENOSINE RECEPTORS AND COMPOSITION COMPRISING SAME FOR PREVENTION, ALLEVIATION, OR TREATMENT OF OBESITYS” (FUTURE MEDICINE CO., LTD., priority 2022, published 2026).
pKi: −log10 of the molar value.

Legend:
[1] = target: T1, A2A adenosine receptor (hA2AR) (Homo sapiens, UniProt P29274); test: Radioligand binding affinity, adherent HEK293 cells stably transfected with hAR cDNA; conditions: normalized to NECA 10 μM
T1 construct: expressed in transfected cells; host or cells: HEK293 (adherent, stably transfected)
Experimental: (§1) The binding affinity of LJ-4378 and derivatives thereof to A2AAR and A3AR is as shown in the following [Table 1]. All binding affinity experiments were performed using adherent HEK293 cells stably transfected with cDNAs encoding appropriate hAR bonds, and were performed using 1 nM [3H]17, 10 nM [3H]18, or 0.2 nM [3H]16 as radioligands for A2A and A3AR, respectively. Values were normalized to a non-specific binder 5′-N-ethylcarboxamidoadenosine (NECA, 10 μM).

[2] = target: T2, A3 adenosine receptor (hA3AR) (Homo sapiens, UniProt P0DMS8); test: as above; conditions: normalized to NECA 10 μM
T2 construct: expressed in transfected cells; host or cells: HEK293 (adherent, stably transfected)
T2 sequence (P0DMS8 1-318): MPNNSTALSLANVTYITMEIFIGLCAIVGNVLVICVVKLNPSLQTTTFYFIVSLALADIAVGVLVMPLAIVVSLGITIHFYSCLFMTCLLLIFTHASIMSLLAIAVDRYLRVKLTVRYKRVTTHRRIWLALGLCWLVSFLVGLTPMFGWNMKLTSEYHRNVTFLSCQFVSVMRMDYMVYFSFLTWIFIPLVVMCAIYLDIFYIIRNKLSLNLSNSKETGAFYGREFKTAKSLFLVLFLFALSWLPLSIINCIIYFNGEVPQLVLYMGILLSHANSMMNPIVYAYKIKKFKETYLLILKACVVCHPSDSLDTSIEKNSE
Experimental: as §1

brown adipocytes [3] = test: Immunoblot of PKA downstream proteins (P-HSL, P-CREB) in brown adipocytes; format: cell-based, mouse; conditions: 0.1 μM, 24 hours, FIG. 3D
Experimental: (§2) Adipocyte precursor cells capable of differentiating into brown adipocytes were isolated from mouse brown adipose tissue. Cells were cultured in Dulbecco's modified Eagle's medium (Welgene, LM001-07) containing 10% fetal bovine serum (FBS, Gibco, 16000044) and 1% Penicillin Streptomycin (Welgene, LS202-02) at 37° C. in a humidified atmosphere with 5% CO2. When the cells reached about 100% confluency, the cells were exposed to a differentiation medium supplemented with 2.5 mM isobutyl methylxanthine (IBMX, Cayman, I5879), 0.125 mM indomethacin (Cayman, 70270), 1 μM dexamethasone (Cayman), 1 μg/mL insulin (Sigma, I9278), and 1 nM triiodothyronine (T3, Cayman, 6028) for 3 days for adipogenesis. Then, the cells were maintained in a growth medium containing 1 μg/mL insulin and 1 nM triiodothyronine (T3) for 3 days.
(§3) In the case of Western blots, the primary antibodies used for Western blots are summarized in [Table 2] above. An anti-rabbit horseradish peroxidase antibody (1:3000, Thermo Fisher, 31460) and an anti-mouse horseradish peroxidase antibody (1:3000, Jackson, 115-035-174) were used as secondary antibodies. All antibodies were diluted in a blocking buffer (5% skimmed milk or 5% bovine serum albumin in TBST). Western blot images were acquired using a Fusion Solo chemiluminescence imaging system (Vilber Lourmat) and analyzed with Evolution Capt software (version 17.03). NIH ImageJ software was used for quantification.

brown adipocytes [4] = test: Lipolysis: glycerol and free fatty acid levels in conditioned medium; format: cell-based, mouse; conditions: 0.1 μM, 24 hours
Experimental: as §2
The free fatty acid (FFA) levels in the medium were measured using an NEFA reagent (WAKO, 436-91693) according to the manufacturer's product protocol.
Glycerol and free fatty acid (FFA) levels in a medium were measured using a glycerol reagent (Sigma Aldrich, F6428) and a NEFA reagent (WAKO, 436-91693) according to the manufacturer's product protocols.

brown adipocytes [5] = test: Immunoblot of mitochondrial proteins and UCP1 in brown adipocytes; format: cell-based, mouse; conditions: 0.1 μM, 24 hours, FIG. 4D
Experimental: as §2, §3

CIDEA reporter mice = test: qPCR of brown adipocyte markers in brown adipose tissue; format: in vivo, mouse; conditions: BAT, 1 mg kg-1/day, 10 days
Experimental: Mice were treated with vehicle (CTL), LJ-4378 (LJ, 1 mg kg-1/day), […] (CGS21680, 1 mg kg-1/day), or A3 antagonist (LJ-4433, 1 mg kg-1/day) for 10 days. (A-B) Representative bioluminescence in dorsal and lateral positions (n=3, mean±SEM, ** p<0.01, **** p<0.0001). (C) Representative ex vivo fluorescence image and quantification of fluorescence intensity of BAT and iWAT (n=3, mean±SEM, ** p<0.01, **** p<0.0001). (D) qPCR analysis of UCP1 and CIDEAM RNA expression levels of brown adipose tissue (BAT) (n=3, mean±SEM, * p<0.05, ** p<0.01, *** p<0.001).
qPCR analysis was performed to investigate the adenosine receptor expression levels in brown adipocytes differentiated from immortalized brown adipocyte precursor cells. Primers used for the qPCR analysis are listed in the following [Table 3].

T1 sequence (P29274 whole entry): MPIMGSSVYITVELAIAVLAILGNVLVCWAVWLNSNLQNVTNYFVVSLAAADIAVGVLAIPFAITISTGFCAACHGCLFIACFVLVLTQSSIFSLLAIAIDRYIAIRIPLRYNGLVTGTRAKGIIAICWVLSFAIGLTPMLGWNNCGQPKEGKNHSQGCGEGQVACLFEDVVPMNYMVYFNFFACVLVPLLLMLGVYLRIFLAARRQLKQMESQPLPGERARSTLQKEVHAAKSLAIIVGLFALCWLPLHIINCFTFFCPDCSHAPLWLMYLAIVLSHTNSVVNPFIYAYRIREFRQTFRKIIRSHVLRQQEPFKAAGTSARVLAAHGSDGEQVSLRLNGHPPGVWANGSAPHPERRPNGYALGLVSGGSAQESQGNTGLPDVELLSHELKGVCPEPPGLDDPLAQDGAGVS

`CCC#Cc1nc(NCc2cccc(Cl)c2)c2ncn([C@@H]3SC[C@@H](O)[C@H]3O)c2n1` [Compound 9h, (2R,3R,4S)-2-(2-(but-1-yn-1-yl)-6-((3-chlorobenzyl)amino)-9H-purin-9-yl)tetrahydrothiophene-3,4-diol] was tested, and the pKi [1] was 6.62 and the pKi [2] was 8.42.
`CCNC(=O)[C@H]1O[C@@H](n2cnc3c(N)nc(NCCc4ccc(CCC(=O)O)cc4)nc32)[C@H](O)[C@@H]1O` [CGS21680, reference compound] was tested, and the “P-CREB, fold increase” value (brown adipocytes [3]) was 2.00±0.11 fold, the “P-HSL, fold increase” value (brown adipocytes [3]) was 1.54±0.05 fold and the “glycerol level in conditioned medium, fold change” value (brown adipocytes [4]; FIG. 3B) was 1.51±0.08 fold. The “FFA level in conditioned medium, fold change” value (brown adipocytes [4]; FIG. 3C) was 1.29±0.09 fold, the “COXIV, fold increase” value (brown adipocytes [5]) was “increased” and the “MCAD, fold increase” value (brown adipocytes [5]) was “increased”. For the same compound, the “UCP1, fold increase” value (brown adipocytes [5]) was “increased”, the “Cidea mRNA level, fold increase” value (CIDEA reporter mice) was 1.29±0.12 fold and the “Ucp1 mRNA level, fold increase” value (CIDEA reporter mice) was 1.72±0.17 fold.
`CCC#Cc1nc(NCc2cccc(F)c2)c2ncn([C@@H]3SC[C@@H](O)[C@H]3O)c2n1` [Compound 9g, (2R,3R,4S)-2-(2-(but-1-yn-1-yl)-6-((3-fluorobenzyl)amino)-9H-purin-9-yl)tetrahydrothiophene-3,4-diol] gave a pKi [1] of 6.04 and a pKi [2] of 8.02.
Work on `CCC#Cc1nc(NCc2cccc(Br)c2)c2ncn([C@@H]3SC[C@@H](O)[C@H]3O)c2n1` [Compound 9i, (2R,3R,4S)-2-(6-((3-bromobenzyl)amino)-2-(but-1-yn-1-yl)-9H-purin-9-yl)tetrahydrothiophene-3,4-diol] yielded a pKi [1] of 6.95 and a pKi [2] of 9.53.
For `CC#Cc1nc(NCc2cccc(Br)c2)c2ncn([C@@H]3SC[C@@H](O)[C@H]3O)c2n1` [Compound 9d, (2R,3R,4S)-2-(6-((3-bromobenzyl)amino)-2-(prop-1-yn-1-yl)-9H-purin-9-yl)tetrahydro thiophene-3,4-diol], the pKi [1] was 6.33 and the pKi [2] was 7.95.
For `CC#Cc1nc(NCc2cccc(F)c2)c2ncn([C@@H]3SC[C@@H](O)[C@H]3O)c2n1` [Compound 9b, (2R,3R,4S)-2-(6-((3-fluorobenzyl)amino)-2-(prop-1-yn-1-yl)-9H-purin-9-yl)tetrahydro thiophene-3,4-diol], the pKi [1] was 6.11 and the pKi [2] was 7.52.
For `CCC#Cc1nc(N)c2ncn([C@@H]3SC[C@@H](O)[C@H]3O)c2n1` [Compound 9f, (2R,3R,4S)-2-(6-amino-2-(but-1-yn-1-yl)-9H-purin-9-yl)tetrahydrothiophene-3,4-diol], the pKi [1] was 7.62 and the pKi [2] was 7.17.
Compound `CC#Cc1nc(N)c2ncn([C@@H]3SC[C@@H](O)[C@H]3O)c2n1` [Compound 9a, (2R,3R,4S)-2-(6-amino-2-(prop-1-yn-1-yl)-9H-purin-9-yl)tetrahydrothiophene-3,4-diol] has a pKi [1] of 6.93 and a pKi [2] of 7.19.
With `CCC#Cc1nc(NCc2cccc(I)c2)c2ncn([C@@H]3SC[C@@H](O)[C@H]3O)c2n1` [Compound 9j, (2R,3R,4S)-2-(2-(but-1-yn-1-yl)-6-((3-iodobenzyl)amino)-9H-purin-9-yl)tetrahydrothiophene-3,4-diol] the pKi [1] was 7.24 and the pKi [2] was 8.07.
For `CC#Cc1nc(NCc2cccc(Cl)c2)c2ncn([C@@H]3SC[C@@H](O)[C@H]3O)c2n1` [Compound 9c, (2R,3R,4S)-2-(6-((3-chlorobenzyl)amino)-2-(prop-1-yn-1-yl)-9H-purin-9-yl)tetrahydro thiophene-3,4-diol], the pKi [1] was 6.66 and the pKi [2] was 8.82.
Work on `CC#Cc1nc(NCc2cccc(I)c2)c2ncn([C@@H]3SC[C@@H](O)[C@H]3O)c2n1` [Compound 9e, (2R,3R,4S)-2-(6-((3-iodobenzyl)amino)-2-(prop-1-yn-1-yl)-9H-purin-9-yl)tetrahydro thiophene-3,4-diol] yielded a pKi [1] of 6.92 and a pKi [2] of 7.70.
